In ChEMBL document CHEMBL1127122, “Neurotensin receptor binding and antinociceptive activity for lipophilic N-amido neurotensin(913) analogs” (Bioorg Med Chem Lett, 1993):
Non-standard residues stand in square brackets, D forms with d. Residues, ends and D or L forms follow the SMILES beside them. *: point of attachment. Adamantane1carbonyl = O=C(C12CC3CC(CC(C3)C1)C2)*; Stearoyl = CCCCCCCCCCCCCCCCCC(=O)*; Nicotinoyl = O=C(c1cccnc1)*; Orn = NCCC[C@H](N)C(=O)O; Boc = CC(C)(C)OC(=O)*; Piv = CC(C)(C)C(=O)*; Bz = O=C(c1ccccc1)*

Key:
Mus musculus [1] = experiment: Analgesic activity in fasted male mice in phenylquinone writhing assay 10 min after i.c.v. administration.; type: functional
Mus musculus [2] = experiment: Analgesic activity in fasted male mice in phenylquinone writhing assay 40 min after i.c.v. administration.; type: functional
Mus musculus [3] = experiment: Analgesic activity in fasted male mice in phenylquinone writhing assay 5 min after i.c.v. administration.; type: functional
Mus musculus [4] = experiment: Analgesic activity of i.v. administered compound in fasted male mice at 10 min. interval was determined using phenylquinone writhing assay; type: functional; details: iv
Mus musculus [5] = experiment: Analgesic activity of i.v. administered compound in fasted male mice at 5 min. interval was determined using phenylquinone writhing assay; type: functional; details: iv
Mu-type opioid receptor = Mu-type opioid receptor (Cavia porcellus, UniProt P97266); experiment: Compound was evaluated for binding affinity against mu receptor by opioid receptor binding assay: Inactive
[6] = molecular target: Kappa-type opioid receptor (Cavia porcellus, UniProt P41144); experiment: Compound was evaluated for binding affinity against Opioid receptor kappa 1 by opioid receptor binding assay: Inactive
[7] = molecular target: Neurotensin receptor type 1 (Rattus norvegicus, UniProt P20789); experiment: Binding affinity against rat neurotensin receptor.
Sequence of Neurotensin receptor type 1 (P20789 whole entry): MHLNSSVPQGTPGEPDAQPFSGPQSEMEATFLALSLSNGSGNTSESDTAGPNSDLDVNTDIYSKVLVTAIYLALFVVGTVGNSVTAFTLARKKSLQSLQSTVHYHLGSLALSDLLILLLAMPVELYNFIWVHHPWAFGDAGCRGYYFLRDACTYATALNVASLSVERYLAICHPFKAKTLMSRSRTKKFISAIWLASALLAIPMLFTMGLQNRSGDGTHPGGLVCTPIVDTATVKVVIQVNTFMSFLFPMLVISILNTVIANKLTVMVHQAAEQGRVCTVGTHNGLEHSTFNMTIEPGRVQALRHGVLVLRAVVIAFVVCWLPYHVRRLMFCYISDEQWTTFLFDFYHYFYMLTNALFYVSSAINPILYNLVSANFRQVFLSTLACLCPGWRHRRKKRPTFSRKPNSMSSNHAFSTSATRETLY

Sequence of Kappa-type opioid receptor (P41144 whole entry): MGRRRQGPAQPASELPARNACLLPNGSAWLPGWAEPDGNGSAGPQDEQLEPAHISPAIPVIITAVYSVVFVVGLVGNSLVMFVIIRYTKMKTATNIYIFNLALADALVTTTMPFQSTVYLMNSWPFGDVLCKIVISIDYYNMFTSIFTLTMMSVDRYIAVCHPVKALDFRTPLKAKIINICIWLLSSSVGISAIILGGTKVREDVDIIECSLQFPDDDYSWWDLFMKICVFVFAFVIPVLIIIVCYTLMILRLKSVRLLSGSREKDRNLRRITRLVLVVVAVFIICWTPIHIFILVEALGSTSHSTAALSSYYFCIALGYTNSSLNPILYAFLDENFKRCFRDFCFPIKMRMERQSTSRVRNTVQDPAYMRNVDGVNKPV
Sequence of Mu-type opioid receptor (P97266 whole entry): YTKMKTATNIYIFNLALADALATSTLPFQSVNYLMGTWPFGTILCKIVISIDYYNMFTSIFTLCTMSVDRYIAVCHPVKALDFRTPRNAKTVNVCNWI

Question: What does the source list for `CC[C@H](C)[C@H](NC(=O)[C@H](Cc1ccc(O)cc1)NC(=O)[C@@H]1CCCN1C(=O)[C@H](CCCCN)NC(=O)C12CC3CC(CC(C3)C1)C2)C(=O)N[C@@H](CC(C)C)C(=O)O` (Adamantane1carbonyl-KPYIL-OH)?
Answer: ED50 (Mus musculus [1]): 0.22 ug mouse-1; ED50 (Mus musculus [2]): 0.71 ug mouse-1; ED50 (Mus musculus [3]): 0.15 ug mouse-1; ED50 (Mus musculus [4]): 2.8 mg/kg; ED50 (Mus musculus [5]): 2.2 mg/kg; Ki (Mu-type opioid receptor): > 10000 nM; Ki [6]: > 10000 nM

Question: `CC[C@H](C)[C@H](NC(=O)[C@H](Cc1ccc(O)cc1)NC(=O)[C@@H]1CCCN1C(=O)[C@H](CCCN)NC(=O)C12CC3CC(CC(C3)C1)C2)C(=O)N[C@@H](CC(C)C)C(=O)O` (Adamantane1carbonyl-[Orn]PYIL-OH) [listing 1 of 2 here] was tested. Which Ki [7] did it give?
Answer: Its Ki is 180 nM.

Question: What does the source list for `CC[C@H](C)[C@H](NC(=O)[C@H](Cc1ccc(O)cc1)NC(=O)[C@@H]1CCCN1C(=O)[C@H](CCCN)NC(=O)C12CC3CC(CC(C3)C1)C2)C(=O)N[C@@H](CC(C)C)C(=O)O` (Adamantane1carbonyl-[Orn]PYIL-OH) [listing 2 of 2 here]?
Answer: ED50 (Mus musculus [1]): 0.45 ug mouse-1; ED50 (Mus musculus [2]): 3.6 ug mouse-1; ED50 (Mus musculus [3]): 0.13 ug mouse-1; ED50 (Mus musculus [4]): 11 mg/kg; ED50 (Mus musculus [5]): 4.8 mg/kg

Question: With `CC[C@H](C)[C@H](NC(=O)[C@H](Cc1ccc(O)cc1)NC(=O)[C@@H]1CCCN1C(=O)[C@H](CCCCN)NC(=O)OC(C)(C)C)C(=O)N[C@@H](CC(C)C)C(=O)O` (Boc-KPYIL-OH) as the compound, how does the ED50 (Mus musculus [1]) read?
Answer: Its ED50 is 0.11 ug mouse-1.

Question: And the ED50 (Mus musculus [2])?
Answer: Its ED50 is 0.2 ug mouse-1.

Question: And the ED50 (Mus musculus [3])?
Answer: Its ED50 is 0.02 ug mouse-1.

Question: And the ED50 (Mus musculus [4])?
Answer: Its ED50 is 6.5 mg/kg.

Question: What about the ED50 (Mus musculus [5]) of the same compound?
Answer: The ED50 was 3.1 mg/kg.

Question: Which ED50 (Mus musculus [1]) does the source give for `CC[C@H](C)[C@H](NC(=O)[C@H](Cc1ccc(O)cc1)NC(=O)[C@@H]1CCCN1C(=O)[C@H](CCCN)NC(=O)OC(C)(C)C)C(=O)N[C@@H](CC(C)C)C(=O)O` (Boc-[Orn]PYIL-OH) here?
Answer: The ED50 was 0.044 ug mouse-1.

Question: What about the ED50 (Mus musculus [2]) of the same compound?
Answer: The ED50 was 0.69 ug mouse-1.

Question: What about the ED50 (Mus musculus [3]) of the same compound?
Answer: The ED50 was 0.00084 ug mouse-1.

Question: What about the ED50 (Mus musculus [4]) of the same compound?
Answer: Its ED50 is 2 mg/kg.

Question: What about the ED50 (Mus musculus [5]) of the same compound?
Answer: Its ED50 is 0.85 mg/kg.

Question: For `CC[C@H](C)[C@H](NC(=O)[C@H](Cc1ccc(O)cc1)NC(=O)[C@@H]1CCCN1C(=O)[C@H](CCCCN)NC(=O)c1ccccc1)C(=O)N[C@@H](CC(C)C)C(=O)O` (Bz-KPYIL-OH) [listing 1 of 2 here], which Ki [7] is on record?
Answer: The Ki was 100 nM.

Question: Which ED50 (Mus musculus [1]) does the source give for `CC[C@H](C)[C@H](NC(=O)[C@H](Cc1ccc(O)cc1)NC(=O)[C@@H]1CCCN1C(=O)[C@H](CCCCN)NC(=O)c1ccccc1)C(=O)N[C@@H](CC(C)C)C(=O)O` (Bz-KPYIL-OH) [listing 2 of 2 here] here?
Answer: Its ED50 is 0.16 ug mouse-1.

Question: And the ED50 (Mus musculus [2])?
Answer: The ED50 was 1.5 ug mouse-1.

Question: What about the ED50 (Mus musculus [3]) of the same compound?
Answer: Its ED50 is 0.0088 ug mouse-1.

Question: What about the ED50 (Mus musculus [4]) of the same compound?
Answer: The ED50 was 5.5 mg/kg.

Question: And the ED50 (Mus musculus [5])?
Answer: The ED50 was 6.6 mg/kg.

Question: Which Ki [7] does the source give for `CC[C@H](C)[C@H](NC(=O)[C@H](Cc1ccc(O)cc1)NC(=O)[C@@H]1CCCN1C(=O)[C@@H](N)CCCN)C(=O)N[C@@H](CC(C)C)C(=O)O` (H-[Orn]PYIL-OH) [listing 1 of 2 here] here?
Answer: The Ki was 520 nM.

Question: Which ED50 (Mus musculus [1]) does the source give for `CC[C@H](C)[C@H](NC(=O)[C@H](Cc1ccc(O)cc1)NC(=O)[C@@H]1CCCN1C(=O)[C@@H](N)CCCN)C(=O)N[C@@H](CC(C)C)C(=O)O` (H-[Orn]PYIL-OH) [listing 2 of 2 here] here?
Answer: Its ED50 is 20 ug mouse-1.

Question: What about the ED50 (Mus musculus [2]) of the same compound?
Answer: The ED50 was 67 ug mouse-1.

Question: And the ED50 (Mus musculus [3])?
Answer: The ED50 was 23 ug mouse-1.

Question: Which Ki [7] does the source give for `CC[C@H](C)[C@H](NC(=O)[C@H](Cc1ccc(O)cc1)NC(=O)[C@@H]1CCCN1C(=O)[C@H](CCCCN)NC(=O)c1cccnc1)C(=O)N[C@@H](CC(C)C)C(=O)O` (Nicotinoyl-KPYIL-OH) [listing 1 of 2 here] here?
Answer: The Ki was 420 nM.

Question: Which results are given for `CC[C@H](C)[C@H](NC(=O)[C@H](Cc1ccc(O)cc1)NC(=O)[C@@H]1CCCN1C(=O)[C@H](CCCCN)NC(=O)c1cccnc1)C(=O)N[C@@H](CC(C)C)C(=O)O` (Nicotinoyl-KPYIL-OH) [listing 2 of 2 here]?
Answer: ED50 (Mus musculus [1]): 0.016 ug mouse-1; ED50 (Mus musculus [2]): 0.3 ug mouse-1; ED50 (Mus musculus [3]): 0.0016 ug mouse-1; ED50 (Mus musculus [4]): 3 mg/kg; ED50 (Mus musculus [5]): 3.6 mg/kg

Question: Which Ki [7] does the source give for `CC[C@H](C)[C@H](NC(=O)[C@H](Cc1ccc(O)cc1)NC(=O)[C@@H]1CCCN1C(=O)[C@H](CCCCN)NC(=O)C(C)(C)C)C(=O)N[C@@H](CC(C)C)C(=O)O` (Piv-KPYIL-OH) [listing 1 of 2 here] here?
Answer: Its Ki is 190 nM.

Question: For `CC[C@H](C)[C@H](NC(=O)[C@H](Cc1ccc(O)cc1)NC(=O)[C@@H]1CCCN1C(=O)[C@H](CCCCN)NC(=O)C(C)(C)C)C(=O)N[C@@H](CC(C)C)C(=O)O` (Piv-KPYIL-OH) [listing 2 of 2 here], which ED50 (Mus musculus [1]) is on record?
Answer: Its ED50 is 0.29 ug mouse-1.

Question: And the ED50 (Mus musculus [2])?
Answer: The ED50 was 0.7 ug mouse-1.

Question: And the ED50 (Mus musculus [3])?
Answer: The ED50 was 0.28 ug mouse-1.

Question: What about the ED50 (Mus musculus [4]) of the same compound?
Answer: Its ED50 is 15 mg/kg.

Question: And the ED50 (Mus musculus [5])?
Answer: Its ED50 is 15 mg/kg.

Question: With `CCCCCCCCCCCCCCCCCC(=O)N[C@@H](CCCCN)C(=O)N1CCC[C@H]1C(=O)N[C@@H](Cc1ccc(O)cc1)C(=O)N[C@H](C(=O)N[C@@H](CC(C)C)C(=O)O)[C@@H](C)CC` (Stearoyl-KPYIL-OH) [listing 1 of 2 here] as the compound, how does the Ki [7] read?
Answer: Its Ki is over 10000 nM.

Question: `CCCCCCCCCCCCCCCCCC(=O)N[C@@H](CCCCN)C(=O)N1CCC[C@H]1C(=O)N[C@@H](Cc1ccc(O)cc1)C(=O)N[C@H](C(=O)N[C@@H](CC(C)C)C(=O)O)[C@@H](C)CC` (Stearoyl-KPYIL-OH) [listing 2 of 2 here] was tested. Which ED50 (Mus musculus [1]) did it give?
Answer: The ED50 was over 50 ug mouse-1.

Question: What about the ED50 (Mus musculus [2]) of the same compound?
Answer: Its ED50 is over 50 ug mouse-1.

Question: And the ED50 (Mus musculus [3])?
Answer: The ED50 was 38 ug mouse-1.
